Values of other authors as cited in patent US20180327482A1, “METHODS AND COMPOSITIONS FOR THE TREATMENT OF HCMV” (priority 2013, published 2018).

Test system: cells latently infected with HCMV
Conditions: Weekes et al., Science 340:199-202 (2013)

For `CC[C@]1(O)C[C@H]2CN(CCc3c([nH]c4ccccc34)[C@@](C(=O)OC)(c3cc4c(cc3OC)N(C=O)[C@H]3[C@@](O)(C(=O)OC)[C@H](OC(C)=O)[C@]5(CC)C=CCN6CC[C@]43[C@@H]65)C2)C1` [Vincristine], the “Elimination of cells latently infected with HCMV” value is listed as “can be used therapeutically to eliminate cells latently infected with HCMV”.
